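Test compounds were applied to cells in 96-well plates for 48 hours at 5 doses. GI50: concentration for 50% inhibition of growth.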 The source made the active and inactive calls. Rule as the data show it: active = GI50 up to about 1.1 µM and inactive = higher.
Columns and labels:
Assay in all cases: inhibition of tumour cell growth, NCI panel, 48 h
[1] = tested on: 786-0
[2] = tested on: ACHN
[3] = tested on: CAKI-1
[4] = tested on: COLO 205
[5] = tested on: HCT-116
[6] = tested on: HCT-15
[7] = tested on: KM-20L2
[8] = tested on: KM12
[9] = tested on: NCI-H226
[10] = tested on: OVCAR-3
[11] = tested on: OVCAR-8
[12] = tested on: RPMI-8226
[13] = tested on: SF-268
[14] = tested on: SF-295
[15] = tested on: SW-620
[16] = tested on: Malme-3M
[17] = tested on: UACC-257
[18] = tested on: BT-549
[19] = tested on: DU-145
[20] = tested on: MDA-N

| SMILES | GI50 [1] | GI50 [2] | GI50 [3] | GI50 [4] | GI50 [5] | GI50 [6] | GI50 [7] | GI50 [8] | GI50 [9] | GI50 [10] | GI50 [11] | GI50 [12] | GI50 [13] | GI50 [14] | GI50 [15] | GI50 [16] | GI50 [17] | GI50 [18] | GI50 [19] | GI50 [20] |
| --- | --- | --- | --- | --- | --- | --- | --- | --- | --- | --- | --- | --- | --- | --- | --- | --- | --- | --- | --- | --- |
| COc1ccc(NC(=O)CC(=O)n2nc(-c3ccccc3)c(/N=N/c3ccccc3C(=O)O)c2-c2ccccc2)cc1 | 21.9 µM (inactive) | > 100 µM (inactive) | > 100 µM (inactive) | > 100 µM (inactive) | > 100 µM (inactive) | > 100 µM | > 100 µM (inactive) | > 100 µM (inactive) | 69.3 µM (inactive) | > 100 µM (inactive) | 25.2 µM (inactive) | > 100 µM (inactive) | > 100 µM (inactive) | 42.4 µM (inactive) | > 100 µM (inactive) |  |  |  |  |  |
| COc1ccc(/C(Cl)=C/c2ccc(Cl)c(Cl)c2)cc1 | 32.5 µM (inactive) | 24.8 µM (inactive) |  | 22.1 µM (inactive) | 22.7 µM (inactive) | 23.1 µM | 22.8 µM (inactive) |  | 14.9 µM (inactive) |  | 29.1 µM (inactive) | 18.2 µM (inactive) | 35.5 µM (inactive) | 23.7 µM (inactive) | 43.2 µM (inactive) | 20.9 µM (inactive) | 24.3 µM (inactive) |  |  |  |
| Nc1nc(SCc2ccccc2Cl)c2ncn(C3OC(CO)C(O)C3O)c2n1 (stereo not given) | > 100 µM (inactive) | > 100 µM (inactive) | > 100 µM (inactive) | > 100 µM (inactive) | 42.4 µM (inactive) | > 100 µM | > 100 µM (inactive) | > 100 µM (inactive) |  | 80.4 µM (inactive) | 89.9 µM (inactive) | 56 µM (inactive) | 80.4 µM (inactive) | 59.4 µM (inactive) | > 100 µM (inactive) | > 100 µM (inactive) |  |  |  |  |
| COc1ccc2c(C(=O)O)cc3cc(OC)c(OC)cc3c2c1 | > 100 µM (inactive) | > 100 µM (inactive) |  | > 100 µM (inactive) | > 100 µM (inactive) | > 100 µM | > 100 µM (inactive) | > 100 µM (inactive) | > 100 µM (inactive) | > 100 µM (inactive) | > 100 µM (inactive) | > 100 µM (inactive) | > 100 µM (inactive) | > 100 µM (inactive) | > 100 µM (inactive) | > 100 µM (inactive) | > 100 µM (inactive) |  |  |  |
| O=[N+]([O-])c1ccc(/C=C/c2ccc(/C=C/c3ccc([N+](=O)[O-])cc3[N+](=O)[O-])cc2)c([N+](=O)[O-])c1 | > 100 µM (inactive) | > 100 µM (inactive) | > 100 µM (inactive) |  | > 100 µM (inactive) | > 100 µM | > 100 µM (inactive) | > 100 µM (inactive) | > 100 µM (inactive) | > 100 µM (inactive) | > 100 µM (inactive) | > 100 µM (inactive) |  | > 100 µM (inactive) | > 100 µM (inactive) | > 100 µM (inactive) | > 100 µM (inactive) |  |  |  |
| CSc1cnc2ccccc2c1Sc1c[nH]c2ccccc2c1=O | 15.3 µM (inactive) | 15.1 µM (inactive) |  | 6.24 µM (inactive) | 9.48 µM (inactive) | 7.1 µM | 4.42 µM (inactive) | 6.82 µM (inactive) | 7.31 µM (inactive) | 5.22 µM (inactive) | 14 µM (inactive) | 6.65 µM (inactive) | 17.3 µM (inactive) | 7.59 µM (inactive) | 3.56 µM (inactive) | 6.55 µM (inactive) | 11.3 µM (inactive) |  |  |  |
| Cc1ccc(C(=O)O/N=C2/CCCCC2CN(C)C)cc1 (stereo not given) | > 100 µM (inactive) | > 100 µM (inactive) | > 100 µM (inactive) | > 100 µM (inactive) | > 100 µM (inactive) | > 100 µM | > 100 µM (inactive) | > 100 µM (inactive) | > 100 µM (inactive) | > 100 µM (inactive) | > 100 µM (inactive) | > 100 µM (inactive) | > 10 µM (inactive) | > 100 µM (inactive) |  | > 100 µM (inactive) | > 100 µM (inactive) |  |  |  |
| COC1/C(=C\C(C)=O)c2ccccc2N1C(C)=O (stereo not given) | > 100 µM (inactive) | > 100 µM (inactive) | > 100 µM (inactive) | > 100 µM (inactive) | > 100 µM (inactive) | > 100 µM | > 100 µM (inactive) | > 100 µM (inactive) |  | > 100 µM (inactive) | > 100 µM (inactive) | > 100 µM (inactive) |  | > 100 µM (inactive) | > 100 µM (inactive) |  | > 100 µM (inactive) |  |  |  |
| COc1ccc(Br)c(CCCCC(=O)O)c1 | > 100 µM (inactive) | > 100 µM (inactive) | > 100 µM (inactive) | > 100 µM (inactive) | > 100 µM (inactive) | > 100 µM | > 100 µM (inactive) |  |  | > 100 µM (inactive) | > 100 µM (inactive) | > 100 µM (inactive) |  | > 100 µM (inactive) | > 100 µM (inactive) |  | > 100 µM (inactive) |  |  |  |
| O=S(=O)(O)CS(=O)(=O)OCCCl | > 100 µM (inactive) | > 100 µM (inactive) | > 100 µM (inactive) | > 100 µM (inactive) | > 100 µM (inactive) |  | > 100 µM (inactive) | > 100 µM (inactive) | > 100 µM (inactive) | > 100 µM (inactive) | > 100 µM (inactive) | > 100 µM (inactive) | > 100 µM (inactive) | > 100 µM (inactive) | > 100 µM (inactive) | > 100 µM (inactive) | > 100 µM (inactive) |  |  |  |
| O=C(CC1(O)C(=O)Nc2ccccc21)c1ccco1 (stereo not given) | > 100 µM (inactive) | > 100 µM (inactive) | > 100 µM (inactive) | > 100 µM (inactive) | > 100 µM (inactive) | > 100 µM | > 100 µM (inactive) |  | > 100 µM (inactive) | > 100 µM (inactive) | > 100 µM (inactive) | > 100 µM (inactive) | > 100 µM (inactive) | > 100 µM (inactive) | > 100 µM (inactive) | > 100 µM (inactive) | > 100 µM (inactive) |  |  |  |
| COc1ccc2c(c1)[n+]([O-])c(C(N)=O)c(N)[n+]2[O-] | 93.1 µM (inactive) | > 100 µM (inactive) | > 100 µM (inactive) | 24.4 µM (inactive) | > 100 µM (inactive) | 61 µM | 37.2 µM (inactive) | 59.2 µM (inactive) | > 100 µM (inactive) | 32.7 µM (inactive) | 95.3 µM (inactive) | > 100 µM (inactive) |  | > 100 µM (inactive) | 57.9 µM (inactive) | > 100 µM (inactive) | 28.6 µM (inactive) |  |  |  |
| CCOC(=O)C/C(=N\c1cc(C)on1)N(CC)CC.[O-][Cl+3]([O-])([O-])O | > 100 µM (inactive) | > 100 µM (inactive) | > 100 µM (inactive) | > 100 µM (inactive) | > 100 µM (inactive) | > 100 µM | > 100 µM (inactive) | > 100 µM (inactive) | > 100 µM (inactive) | > 100 µM (inactive) | > 100 µM (inactive) | > 100 µM (inactive) | > 100 µM (inactive) |  | > 100 µM (inactive) | > 100 µM (inactive) |  |  |  |  |
| Cc1cc(Cl)ccc1C(=O)c1ccc2ccccc2c1C(=O)O | > 100 µM (inactive) | > 100 µM (inactive) | > 100 µM (inactive) | > 100 µM (inactive) | > 100 µM (inactive) | > 100 µM |  | > 100 µM (inactive) | > 100 µM (inactive) | > 100 µM (inactive) | > 100 µM (inactive) | > 100 µM (inactive) | > 100 µM (inactive) | 98.9 µM (inactive) | > 100 µM (inactive) | > 100 µM (inactive) | > 100 µM (inactive) | > 100 µM (inactive) | > 100 µM (inactive) | > 100 µM (inactive) |
| Cc1cc(NCCCCCCCCCC[n+]2c(C)cc(N)c3ccccc32)c2ccccc2n1 | 1.78 µM (inactive) | 2.31 µM (inactive) | 9.68 µM (inactive) | 0.346 µM (active) | 0.209 µM (active) | 3.95 µM |  | 0.2 µM (active) | 2.67 µM (inactive) | 0.975 µM (active) | 0.875 µM (active) | 0.029 µM (active) | 1.43 µM (inactive) | 0.861 µM (active) | 1.84 µM (inactive) | 1.82 µM (inactive) | 0.216 µM (active) | 1.86 µM (inactive) | 2.49 µM (inactive) | 1.04 µM (active) |
| CCC(=O)c1cn(C)c(=O)c2ccccc12 | > 100 µM (inactive) | > 100 µM (inactive) | > 100 µM (inactive) | > 100 µM (inactive) |  | > 100 µM | > 100 µM (inactive) | > 100 µM (inactive) | > 100 µM (inactive) | > 100 µM (inactive) | > 100 µM (inactive) | > 100 µM (inactive) | > 100 µM (inactive) | > 100 µM (inactive) | > 100 µM (inactive) | > 100 µM (inactive) | > 100 µM (inactive) |  |  |  |
| C/C=C/[C@H](O[Si](C)(C)C(C)(C)C)[C@@H](O)/C=C/C(=O)OCC | 20.8 µM (inactive) | 16.6 µM (inactive) | 18.2 µM (inactive) | 20.1 µM (inactive) | 17.9 µM (inactive) | 14.4 µM |  | 18 µM (inactive) | 29.4 µM (inactive) | 19.6 µM (inactive) | 18.6 µM (inactive) | 2.04 µM (inactive) | 24 µM (inactive) | 20.9 µM (inactive) | 19.3 µM (inactive) | 14.7 µM (inactive) | 19 µM (inactive) | 31.8 µM (inactive) | 43.8 µM (inactive) | 19.6 µM (inactive) |
